Results from US11840521B2, “Modulators of Mas-related G-protein receptor X4 and related products and methods” (Escient Pharmaceuticals, Inc., priority 2019, dated 2023).
Entries after “also recorded” stand apart in the source; their conditions may differ. Where two headings read alike, the source gives them in different places.

Columns and labels:
[1] = molecular target: T1, MRGPRX4 (Homo sapiens, UniProt Q96LA9); assay: Agonism of MRGPRX4 by bilirubin and urobilin samples after 24 h storage; format: cell-based; conditions: 24 h at room temperature under blue light; FIG. 4B
T1 sequence (Q96LA9 whole entry): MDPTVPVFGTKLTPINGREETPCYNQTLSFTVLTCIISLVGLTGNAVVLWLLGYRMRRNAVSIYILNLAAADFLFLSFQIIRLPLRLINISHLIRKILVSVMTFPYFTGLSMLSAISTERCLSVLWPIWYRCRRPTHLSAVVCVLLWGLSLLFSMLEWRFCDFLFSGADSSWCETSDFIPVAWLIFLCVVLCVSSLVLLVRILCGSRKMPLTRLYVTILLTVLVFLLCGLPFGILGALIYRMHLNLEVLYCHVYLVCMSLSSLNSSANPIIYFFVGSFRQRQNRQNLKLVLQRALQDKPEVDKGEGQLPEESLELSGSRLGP
Procedure: Samples were evaluated after 24 hours and the percent remaining of urobilin and bilirubin, relative to a time zero standard, were determined by measurement of the degradation of the analyte contained in the samples as determined by tandem mass spectroscopy (LC MS/MS). The samples (at 24 h) were also evaluated for their ability to agonize MRGPRX4.

[2] = molecular target: T1, MRGPRX4; assay: In vitro activation (agonism) of MRGPRX4, IP-One Gq HTRF assay; format: cell-based
Procedure: Metabolites of heme (bilirubin, biliverdin, urobilin, urobilinogen, and stercobilin) were analyzed for in vitro activation of MRGPRX4. Cells were plated in a 384-well assay plate at 20,000 cells per well in 12 μL of Opti-MEM and kept in an incubator overnight. On the day of the assay, different agonists solubilized at 10 mM in 0.1% NaOH were added as a 10-point curve ([…] final top concentration with 1:3 serial dilutions) using a Tecan D300E digital dispenser. Agonists were diluted in assay buffer (final concentrations of 5.7 mM Tris-HCl, 43 mM NaCl, 50 mM LiCl, pH=8) and 2 μL of the appropriate agonist are added to each well. Plates were incubated in the dark for 1 h at 37° C. and then for 30 minutes at room temperature. IP-1 standards and HTRF detection reagents were added according to the IP-One—Gq Kit purchased from Cisbio (part number 62IPAPEJ) and incubated in the dark for 1 h at room temperature. The plate was read on a Molecular Devices SpectraMax iD5 plate reader. The HTRF ratio was calculated from the raw data and graphed using GraphPad Prism to calculate an IC50 value for each compound.

[3] = tested on: wild type mice; assay: Mouse itch study, scratching bouts after subcutaneous pruritogen (SCLABA); format: in vivo; conditions: SC injection on the neck, 30 min recording, FIG. 2A-2B
Procedure: The ability of urobilin to induce itch in wild type mice was also tested. Typical mouse itch studies occurred as follows: C57B6J male mice were multiple-housed in a normal light cycle (6 am on; […]) under temperature and humidity-controlled conditions. The mice were handled and habituated to test chambers before testing, then placed in individual SCLABA test chambers. After 20 minutes, the mice were dosed PO with vehicle (saline, pH 7-8). After 30 minutes, the pruritogen of study ([…] in saline) or saline is given subcutaneously (SC) on the neck on the midline behind the ears. Video was recorded from the first pruritogen injection for 30 minutes using the SCLABA system. Scratching bouts were scored from SCLABA thumbnails using 12/45/85/100 waveform criteria. Group sizes were typically 9-10 animals per group.

[4] = molecular target: T1, MRGPRX4; assay: MRGPR X4 antagonist activity, IP-One Gq HTRF assay in stably transfected HEK cells (versus agonist bilirubin, deoxycholic acid, conjugated bilirubin, urobilin, obeticholic acid or BAR502); format: cell-based; set-up: expressed in transfected cells; host or cells: HEK cells, stably transfected
Summary of the method: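 Stably transfected HEK cells expressing human MRGPR X4, seeded overnight, given compounds as 10-point 1:3 curves from 10 uM final top, incubated 1 h at 37° C then 30 min at room temperature. IP-1 measured by IP-One Gq HTRF. IC50 derived from the HTRF ratio.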

[5] = Mouse pharmacokinetics study, 50 mg/kg oral gavage, plasma LC-MS/MS; format: in vivo; conditions: male C57BL/6 mice, non-fasted
Procedure: Compounds were formulated in 5% DMSO, 5% Solutol, and […] phosphate buffered saline at a concentration of 5 mg/mL, and typically appeared as a fine homogenous suspension. Male C57BL/6 mice (n=3/compound) were administered a 50 mg/kg dose of each compound by oral gavage under a non-fasted condition. Blood samples were collected via the saphenous vein onto K2-EDTA at 0.25, 0.5, 1, 2, 4, 8 and 24 hours after dosing, and plasma was prepared and stored at […] until analysis. Plasma sample preparation for analysis was done by protein precipitation using acetonitrile (including Celecoxib as an internal standard) followed by centrifugation. Compound concentrations were determined in extracted plasma using LC-MS/MS relative to an 8 point standard curve covering the 1 to 3000 ng/mL range. Non-compartmental analysis using Phoenix WinNonlin was used to estimate pharmacokinetic parameters including area under the curve, clearance, and half-life. The administered dose was confirmed by analysis of residual dosing material by UPLC-UV relative to a single point calibration sample.

[6] = read-out: IC50 (10 μM BAR502) nM, MRGPRX4 antagonists versus 10 μM BAR502 agonist
[7] = versus 10 μM Bilirubin agonist, HEK cells expressing human MRGPR X4, read-out: MRGPR4 Antagonist Activity
[8] = versus 10 μM Bilirubin agonist, read-out: IC50 (Bilirubin agonist)
[9] = versus 20 μM deoxycholic acid, read-out: IC50 (Deoxycholic Acid agonist)
[10] = versus 20 μM obeticholic acid, read-out: IC50 (Obeticholic Acid Agonist)
[11] = versus 50 μM urobilin, read-out: IC50 (Urobilin Agonist)
[12] = versus 100 μM conjugated bilirubin, read-out: IC50 (Conjugated Bilirubin Agonist)

Row | Compound | agonist activity on MRGPRX4 after storage, relative to the other three groups [1] | efficacy at activating MRGPRX4 relative to bilirubin ([2]; FIG. 1, compared with bilirubin) | induction of scratch response in mice [3] | IC50 [4, 6] | IC50 [4, 7] | IC50 [4, 8] | IC50 [4, 9] | IC50 [4, 10] | IC50 [4, 11] | IC50 [4, 12] | AUC [5] | Cmax [5] | T-1/2 [5] | EC50 ([2]; read-out: agonist activity against MRGPRX4)
1 | CCC1=C(C)C(CC2=N/C(=C\c3[nH]c(CC4NC(=O)C(C)=C4CC)c(C)c3CCC(=O)O)C(CCC(=O)O)=C2C)NC1=O (centres unmarked) [Urobilin, urobilin] | very little agonist activity | at least 10 fold | induced scratch response in mice in a dose dependent manner; also recorded: potent inducer of scratch response in mice |  |  |  |  |  |  |  |  |  |  | 
2 | O=C(O)c1cccc(COc2ccc(C(F)(F)F)cc2Cl)n1 [Compound 1-56, 6-((2-chloro-4-(trifluoromethyl)phenoxy)methyl)picolinic acid] |  |  |  | 16 nM | < 100 nM | 28 nM | 30 nM | 24 nM | 21 nM | 32 nM | 880 μMxhr | 162 µM | 3.2 h | 
3 | O=C(O)c1cccc(COc2ccc(Cl)cc2Cl)c1F [Compound 4-1, 3-((2,4-dichlorophenoxy)methyl)-2-fluorobenzoic acid] |  |  |  |  | < 100 nM | 27 nM | 55 nM |  |  | 81 nM | 1503 μMxhr | 231 µM | 5.9 h | 
4 | CCc1cc(COc2ccc(C(F)(F)F)cc2Cl)nc(C(=O)O)c1 [Compound 42-3] |  |  |  | 17 nM | < 100 nM | 16 nM | 16 nM | 7 nM | 21 nM | 28 nM | 4700 μMxhr | 460 µM | 5.4 h | 
5 | Cc1cc(COc2ccc(C(F)(F)F)cc2Cl)cc(C(=O)O)c1 [Compound 4-10, 3-((2-chloro-4-(trifluoromethyl)phenoxy)methyl)-5-methylbenzoic acid] |  |  |  |  | < 100 nM | 16 nM | 22 nM | 15 nM | 35 nM | 21 nM | 974 μMxhr | 260 µM | 4.6 h | 
6 | O=C(O)c1cccc(COc2ccc(Cl)c(Cl)c2Cl)c1 [Compound 1-78] |  |  |  | 20 nM | < 100 nM | 7 nM | 24 nM | 21 nM | 13 nM | 24 nM | 219 μMxhr | 57 µM | 4.0 h | 
7 | CC[C@H]1[C@@H](O)[C@@H]2[C@H](CC[C@]3(C)[C@@H]([C@H](C)CCO)CC[C@@H]23)[C@@]2(C)CC[C@@H](O)C[C@@H]12 [BAR502] |  |  |  |  |  |  |  |  |  |  |  |  |  | 5700 nM
